According to patent publication US8980848B2, “Flavonoid dimers and their use” (The Hong Kong Polytechnic University, priority 2010, dated 2015):

Columns and labels:
[1] = test system: LCC6 cells; experiment: Doxorubicin accumulation in LCC6 cells; assay type: cell-based, human; settings: 1 μM
Text: Doxorubycin accumulation. […] […].

[2] = test system: Raw264.7 cells; experiment: Cytotoxicity, mouse macrophage Raw264.7; assay type: cell-based; settings: Mus musculus, RAW264.7, 72 h
Summary of the method: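 Raw264.7 (1×10^4 cells/well) and primary PEM cells (2×10^4 cells/well) in supplemented DMEM received graded compound doses and were incubated 72 h at 37 °C, 5% CO2. Percent survivors determined; cytotoxicity IC50 used for therapeutic index against antileishmanial IC50.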

[3] = test system: LCC6MDR cells; experiment: Doxorubicin influx in LCC6MDR cells; assay type: cell-based, human; settings: for Intracellular doxorubicin level, influx: LCC6MDR, after 75 min
Protocol: (§1) Influx and Efflux Studies. […] 0.15% of DMSO acted as a negative control. The cells were harvested after 0, 15, 30, 45, 75 min for determining the intracellular Doxorubycin concentration as described previously. […] The cells were then washed and further incubated in the presence or absence of compound 18 (1 or 3 μM). At 0, 15, 30, 60, 90, 120, 150 and 180 min, the cells were harvested for measuring the intracellular Doxorubycin concentration.
(§2) Effect of Compound 18 on Doxorubicin Influx and Efflux of MDA435/LCC6MDR Cells. Experiments were performed to determine whether the increased accumulation of doxorubicin in LCC6MDR cells caused by 18 is due to potentiation of doxorubicin influx or inhibition of efflux.

[4] = Cytotoxicity of flavonoid dimers, L929 mouse fibroblast; assay type: cell-based; settings: mouse, L929 fibroblast cells, IC50 of compound alone, 72 hrs, mouse fibroblast
Summary of the method: (§3)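 LCC6, LCC6MDR and L929 cells seeded at 1×10^4 cells/well and exposed to graded doses of flavonoid dimers. Incubation 72 hrs at 37° C., 5% CO2. Read-out: % survivors.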

[5] = Tumor cell line cytotoxicity of flavonoid dimers, LCC6; assay type: cell-based, human; settings: human, LCC6 cells, IC50 of compound alone
Summary of the method: as §3

[6] = biological target: T1, Pgp (LCC6MDR cells) (Homo sapiens, UniProt P08183); experiment: Cell proliferation assay: Pgp-modulating activity, reversal of anticancer drug resistance in LCC6MDR cells; settings: for EC50: EC50 of compounds for reversing anticancer drug resistance (nM), LCC6MDR
T1 sequence (P08183 whole entry): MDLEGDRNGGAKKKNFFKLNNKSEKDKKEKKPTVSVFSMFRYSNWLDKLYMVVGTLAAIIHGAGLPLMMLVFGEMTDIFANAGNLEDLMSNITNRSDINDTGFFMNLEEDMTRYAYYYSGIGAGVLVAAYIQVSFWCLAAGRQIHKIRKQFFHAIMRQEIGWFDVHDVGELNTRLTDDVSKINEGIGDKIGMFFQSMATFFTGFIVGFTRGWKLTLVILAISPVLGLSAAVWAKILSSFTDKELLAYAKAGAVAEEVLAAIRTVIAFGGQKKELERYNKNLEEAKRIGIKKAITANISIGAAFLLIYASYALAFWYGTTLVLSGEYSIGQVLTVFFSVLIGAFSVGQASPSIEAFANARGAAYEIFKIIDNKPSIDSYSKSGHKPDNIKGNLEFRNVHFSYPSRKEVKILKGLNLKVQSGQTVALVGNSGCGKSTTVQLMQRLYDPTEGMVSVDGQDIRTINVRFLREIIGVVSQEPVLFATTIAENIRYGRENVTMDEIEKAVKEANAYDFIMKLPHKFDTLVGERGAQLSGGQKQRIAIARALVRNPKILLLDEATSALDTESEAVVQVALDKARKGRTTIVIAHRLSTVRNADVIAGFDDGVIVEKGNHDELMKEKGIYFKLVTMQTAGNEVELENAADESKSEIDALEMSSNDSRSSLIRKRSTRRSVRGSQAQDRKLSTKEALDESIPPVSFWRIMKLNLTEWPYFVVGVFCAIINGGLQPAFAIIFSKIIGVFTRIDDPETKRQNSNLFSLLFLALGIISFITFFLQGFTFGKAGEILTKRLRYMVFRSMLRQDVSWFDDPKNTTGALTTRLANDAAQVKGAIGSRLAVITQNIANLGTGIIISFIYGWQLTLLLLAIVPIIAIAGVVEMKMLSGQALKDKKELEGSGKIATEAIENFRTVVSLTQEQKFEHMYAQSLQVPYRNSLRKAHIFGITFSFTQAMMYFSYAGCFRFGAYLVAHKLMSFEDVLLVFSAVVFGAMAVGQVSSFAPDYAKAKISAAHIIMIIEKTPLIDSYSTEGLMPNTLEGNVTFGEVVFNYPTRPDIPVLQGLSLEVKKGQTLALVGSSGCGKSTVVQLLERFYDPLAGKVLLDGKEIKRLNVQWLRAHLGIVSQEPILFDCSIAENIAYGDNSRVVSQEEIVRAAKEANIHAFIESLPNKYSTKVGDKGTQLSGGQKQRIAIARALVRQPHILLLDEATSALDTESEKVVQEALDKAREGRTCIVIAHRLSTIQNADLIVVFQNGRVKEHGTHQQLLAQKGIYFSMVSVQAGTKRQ

[7] = test system: LCC6 cells; experiment: Doxorubicin influx in LCC6 cells; assay type: cell-based, human; settings: after 75 min
Protocol: as §1, §2

[8] = test system: Ld39 promastigotes (SSG-resistant); experiment: In vitro anti-promastigote activity, Ld39; assay type: cell-based, Leishmania donovani; settings: Leishmania donovani, 72 h, read-out: Anti-promastigotes activity (IC50, μM) Ld39
Summary of the method: (§4)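 L. donovani (LdAG83 wild type, SSG-resistant Ld39) and L. major Lm50122 promastigotes were seeded at 1×10^5 per well with a concentration series of compound.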

[9] = Tumor cell line cytotoxicity of flavonoid dimers, LCC6MDR; assay type: cell-based, human; settings: human, LCC6MDR cells, IC50 of compound alone
Summary of the method: as §3

[10] = biological target: T1, Pgp (LCC6MDR cells); experiment: Doxorubicin accumulation in LCC6MDR cells
[11] = Cytotoxicity over LCC6, LCC6MDR and L929 cell lines; assay type: cell-based, human, mouse; settings: human, mouse, LCC6MDR and L929 cell lines; cancer lines LCC6, LCC6MDR and/or L929
[12] = test system: LCC6 cells; experiment: Doxorubicin efflux in LCC6 cells; assay type: cell-based, human; settings: after 3 hrs
Protocol: as §1
In the efflux experiments, both LCC6 and LCC6MDR were first pre-loaded with doxorubicin for 2 hrs, washed and the remaining doxorubicin was measured after 0, 15, 30, 60, 90, 120, 150 and 180 min. […] Thus efflux rate of LCC6MDR is higher than LCC6. At 1DM or 3 μM of 18, the doxorubicin efflux rate was unaltered in the wild type LCC6 cells. After 3 hrs, the intracellular doxorubicin levels of LCC cells at 1 μM (3122 FU, 71% of doxorubicin remained) and 3 μM (3103 FU, 71% of doxorubicin remained) were very close to that at 0 μM (2601 FU, 60% of doxorubicin remained), respectively (FIG. 3A).

[13] = test system: LdAG83 promastigotes (wild type); experiment: In vitro anti-promastigote activity, LdAG83; assay type: cell-based, Leishmania donovani; settings: Leishmania donovani, 72 h, read-out: Anti-promastigotes activity (IC50, μM) LdAG83
Summary of the method: as §4

[14] = test system: LCC6 cells; experiment: Cell proliferation assay: paclitaxel on parental LCC6 cells without modulator; assay type: cell-based; settings: Homo sapiens, LCC-6, no modulator, read-out: IC50 of paclitaxel of LCC6 in the absence of modulators
Text: Cell Proliferation Assay.

For `O=c1cc(-c2ccc(OCCOCCN(CCOCCOc3ccc(-c4cc(=O)c5ccccc5o4)cc3)Cc3ccccc3)cc2)oc2ccccc12` [Compound 18, 1,13-Bis[4′-(4H-chromen-4-on-2-yl)phenyl]-N-(benzyl)-1,4,10,13-tetraoxa-7-azamidecane], the “Effect on intracellular doxorubicin accumulation in parental LCC6” value [1] was “does not increase”, the IC50 [2] was greater than 79000 nM and the “Effect on doxorubicin influx” value ([3]; 1 or 3 μM, LCC6 and LCC6MDR) was “no effect on doxorubicin influx”. For the same molecule, the “Intracellular doxorubicin level, influx” value ([3]; 1 μM) was 0-803 FU, the “Intracellular doxorubicin level, influx” value ([3]; 3 μM) was 0-909 FU and the IC50 at 72 h [4] was 85 µM. For the same molecule, the IC50 at 72 h [5] was greater than 75 µM, the EC50 ([6]; Daunorubicin) was 95 ± 25 nM and the EC50 ([6]; Doxorubicin) was 131 ± 13 nM. The EC50 ([6]; Mitoxantrone) was 90 ± 20 nM, the EC50 ([6]; Paclitaxel) was 148 ± 18 nM and the EC50 ([6]; Vinblasinte, vinblastine) was 173 ± 27 nM. For the same molecule, the EC50 ([6]; Vincristine) was 179 ± 32 nM, the Therapeutic index ([6]; IC50 of compounds for L929/EC50 of compounds for lowering paclitaxel drug resistance) was 574.3 and the “Intracellular doxorubicin level, influx” value ([7]; LCC6, 1 μM) was 0-1320 FU. For the same molecule, the “Intracellular doxorubicin level, influx” value ([7]; LCC6, 3 μM) was 0-1035 FU, the IC50 [8] was 12.3 ± 6 µM and the IC50 at 72 h [9] was greater than 63 µM. For the same molecule, the “Fold more active than verapamil in inhibiting doxorubicin transport activity of Pgp” value [10] was “roughly 16 fold”, the “Concentration to restore doxorubicin accumulation in LCC6MDR to levels of parental LCC6” value ([10]; LCC6MDR) was 500 nM and the IC50 at 72 h [11] was greater than 63000 nM. The Doxorubicin remained ([12]; LCC6, 1 μM) was 71%, the “Intracellular doxorubicin level, efflux” value ([12]; LCC6, 1 μM) was 3122 FU and the Doxorubicin remained ([12]; LCC6, 3 μM) was 71%. The “Intracellular doxorubicin level, efflux” value ([12]; LCC6, 3 μM) was 3103 FU and the IC50 [13] was 8.4 ± 6.1 µM.

In the case of `CC(=O)O[C@H]1C(=O)[C@@]2(C)[C@H]([C@H](OC(=O)c3ccccc3)[C@]3(O)C[C@H](OC(=O)[C@H](O)[C@@H](NC(=O)c4ccccc4)c4ccccc4)C(C)=C1C3(C)C)[C@]1(OC(C)=O)CO[C@@H]1C[C@@H]2O` [paclitaxel], the IC50 [14] is reported as 1.6 ± 0.3 nM.
